System: Microdochium nivale
Assay: Microdochium nivale test (lawn)/protective
Type: in vivo
Conditions: lawn (100% Agrostis stolonifera), preventive application at 2000, 1000, 500 and 100 g/ha, inoculation 24 hours later, scoring after 5, 7, 14 and 21 days
Procedure: Microdochium Nivale Test (Lawn)/Protective
Lawn seed (100% Agrostis stolonifera) was sown in dishes of the dimensions 38 cm×15 cm×9 cm. 7 days after sowing, the lawn was cut prior to preventive guanidinium hydroxide application at application rates of 2000, 1000, 500 and 100 g/ha. The water application rates were 1000 l/ha (converted). 24 hours after the preventive application of the active compound, the lawn was inoculated by placing of wheat grains infected with Microdochium nivale. In each case 3 wheat grains were placed into a single dish. Scoring of the subsequent fungal growth in the lawn dishes was carried out after 5, 7, 14 and 21 days. In the dishes which had been treated with guanidinium hydroxide, an inhibition of the growth of Microdochium nivale of up to 30% (Abbott) was observed.

N=C(N)N.O [guanidinium hydroxide]
inhibition of the growth of Microdochium nivale (Abbott): up to 30%
